How the values were obtained:
[1] = Early-morning blood pressure and pulse rate in kidney transplant recipients; assay type: in vivo, human; conditions: for Diastolic blood pressure / Pulse rate: diltiazem 30 mg every 12 h
Procedure: All patients received a fixed dose of omeprazole 40 mg/day.
For calculation of AUC/D and C0/D, values of AUC and C0 were dose-adjusted by dividing the observed values by the dose recorded on the day of blood collection. Early-morning blood pressures were measured on the same day of blood collection for pharmacokinetic analysis by a ward nurse as part of a routine examination, during rest in a seated position with a calibrated and well-maintained automatic sphygmomanometer. Delayed graft function (DGF) was defined as failure of the kidney graft to function immediately, with the need for dialysis in the first 7 days post-KT. Episode of biopsy-proven acute rejection (BPAR) during 3 months post-KT was diagnosed based on histologic findings in indication kidney graft biopsy according to Banff 2015 criteria.

[2] = diltiazem 30 mg three times daily; day 7 after KT; CYP3A5 expressers; cited from earlier work
[3] = day 3 post-transplantation, CYP3A5 expressers (n = 11), mean ± SD
[4] = day 3 post-transplantation, CYP3A5 non-expressers (n = 9), mean ± SD
[5] = day 7 post-transplantation, CYP3A5 expressers (n = 11), mean ± SD
[6] = day 7 post-transplantation, CYP3A5 non-expressers (n = 9), mean ± SD

For COc1ccc([C@@H]2Sc3ccccc3N(CCN(C)C)C(=O)[C@@H]2OC(C)=O)cc1 [Diltiazem], the Diastolic blood pressure ([1]; day 1 post-transplantation, CYP3A5 expressers (n = 11), mean ± SD) was 89.2 ± 13.3 mmHg, the Pulse rate ([1]; day 1 post-transplantation, CYP3A5 expressers (n = 11), median (IQR)) was 82.0 (74.0, 86.0) bpm and the Diastolic blood pressure ([1]; day 1 post-transplantation, CYP3A5 non-expressers (n = 9), mean ± SD) was 87.4 ± 14.8 mmHg. For the same compound, the Pulse rate ([1]; day 1 post-transplantation, CYP3A5 non-expressers (n = 9), median (IQR)) was 82.0 (73.0, 86.0) bpm, the Diastolic blood pressure [1, 3] was 86.8 ± 13.5 mmHg and the Pulse rate [1, 3] was 86.6 ± 15.4 bpm. For the same compound, the Diastolic blood pressure [1, 4] was 84.3 ± 14.0 mmHg, the Pulse rate [1, 4] was 82.4 ± 7.2 bpm and the Diastolic blood pressure [1, 5] was 77.8 ± 13.3 mmHg. It also gave a Pulse rate [1, 5] of 80.2 ± 11.2 bpm, a Diastolic blood pressure [1, 6] of 81.0 ± 7.3 mmHg and a Pulse rate [1, 6] of 81.8 ± 8.6 bpm. For the same compound, the “Effects on blood pressure” value ([1]; diltiazem 60 mg/day, first week post-KT) was “No significant effects on blood pressure” and the “Effect of diltiazem coadministration on tacrolimus dose-adjusted trough concentration (C0/D)” value [2] was “Significantly higher”.

From article PMC9393165 (Scientific Reports, 2022)
